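1) Cells in 96-well plates. 2) Compound, 48 h, 5 concentrations. 3) Linear interpolation between surrounding doses. 4) Unreached endpoint = highest concentration. GI50: concentration for 50% inhibition of growth.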 Active and inactive are the calls of the source. Rule as the data show it: active = GI50 up to about 1.1 µM and inactive = higher.

Common to all, as to test: NCI-60 cell line screen, 48 h
The test system of test [1] is Hs-578T.
Test [2] has as its system BT-549.
Test [3] relates to SNB-75.
In test [4] the test system is HCT-116.
Test [5] has as its system U-251.
Test [6] relates to OVCAR-4.
Test [7] concerns 786-0.
Test [8] deals with SK-OV-3.
In test [9] the test system is PC-3.
In test [10] the test system is NCI-H226.
In test [11] the test system is A549.
For test [12], the system named is HOP-92.
Test [13] concerns K562.
The test system of test [14] is A498.
Test [15] concerns RXF 393.
Test [16] relates to UACC-62.
The subject of test [17] is SK-MEL-5.
For test [18], the system named is EKVX.
The subject of test [19] is Malme-3M.
Test [20] deals with SR.

With `c1cc(NNc2cccc(-c3nnn[nH]3)c2)cc(-c2nnn[nH]2)c1`, the GI50 in test [1], in test [2], in [3], in [4], in test [5] and in test [6] was > 100 µM (inactive) each time. Besides, the GI50 in test [7], in test [8], in test [9], in test [10], in test [11] and in [12] was > 100 µM (inactive) in each case. Further, the GI50 in [13], in test [14], in [15], in [16], in test [17] and in test [18] was > 100 µM (inactive) throughout. For the same molecule, the GI50 in test [19] was > 100 µM (inactive).

Take `CNC(=S)c1nnsc1N`: the GI50 is > 100 µM (inactive) in test [1]; > 100 µM (inactive) in [2]; > 100 µM (inactive) in test [3]; 66.4 µM (inactive) in test [4]; > 100 µM (inactive) in [5]; > 100 µM (inactive) in test [6]. For the same molecule, the GI50 in [7] is > 100 µM (inactive); in [8], > 100 µM (inactive); in [9] it was 9.93 µM (inactive); in test [10], > 100 µM (inactive); in test [11], > 100 µM (inactive); in test [13] it was 21.7 µM (inactive). The GI50 is 87.3 µM (inactive) in test [14]; > 100 µM (inactive) in test [15]; > 100 µM (inactive) in [16]; 14 µM (inactive) in test [17]; > 100 µM (inactive) in [18]; > 100 µM (inactive) in [19].

For the molecule `NC(=O)N/N=C(\Cc1nc2ccc(Cl)cc2nc1O)C(=O)Nc1ccc(Cl)cc1Cl`, the GI50 in test [1] was 57.4 µM (inactive); in test [2], > 100 µM (inactive); in test [3], > 100 µM (inactive); in test [4], > 100 µM (inactive); in test [5], > 100 µM (inactive); in test [6], > 100 µM (inactive). For the same molecule, the GI50 was > 100 µM (inactive) in test [7]; > 100 µM (inactive) in test [8]; > 100 µM (inactive) in test [9]; 87.1 µM (inactive) in [10]; > 100 µM (inactive) in [11]; > 100 µM (inactive) in [13]. In addition, the GI50 in test [14] is > 100 µM (inactive); in test [16], > 100 µM (inactive); in test [17] it was > 100 µM (inactive); in test [18], 10.6 µM (inactive); in test [19], > 100 µM (inactive).

For the molecule `C=C(CCC/C(C)=C/C=C/[C@H](C)CCCc1ccoc1)C[C@@H]1OC(=O)[C@H](C)[C@@H]1O`, the GI50 in [2] was 8.69 µM (inactive); in test [3], 8.75 µM (inactive); in test [4] it was 11.5 µM (inactive); in test [5], 11.8 µM (inactive); in test [6], 4.73 µM (inactive); in test [7], 11.2 µM (inactive). Besides, the GI50 in test [20] was 11.8 µM (inactive); in test [8], 8.15 µM (inactive); in test [9], 8.65 µM (inactive); in test [10] it was 8.18 µM (inactive); in [11], 5.7 µM (inactive); in test [12], 8.95 µM (inactive). For the same molecule, the GI50 in [13] is 13.7 µM (inactive); in [14] it was 8.53 µM (inactive); in test [15], 6.67 µM (inactive); in test [16] it was 7.98 µM (inactive); in test [17], 8.04 µM (inactive); in test [18] it was 9.84 µM (inactive). Moreover, in test [19], the GI50 was 9.4 µM (inactive).

As to `CCN(CC)c1c(-c2c(N(CC)CC)c(OC(C)=O)c3sccn3c2=O)c(=O)n2ccsc2c1OC(C)=O`, the GI50 was 38.8 µM (inactive) in test [1]; 32 µM (inactive) in test [2]; 19.4 µM (inactive) in test [3]; 71 µM (inactive) in [4]; 37.5 µM (inactive) in test [5]; > 100 µM (inactive) in test [6]. Besides, the GI50 is 22.5 µM (inactive) in [7]; 73.3 µM (inactive) in [8]; > 100 µM (inactive) in test [9]; 44.4 µM (inactive) in test [10]; > 100 µM (inactive) in test [12]; > 100 µM (inactive) in test [13]. Besides, the GI50 was > 100 µM (inactive) in test [14]; 81.7 µM (inactive) in [16]; > 100 µM (inactive) in test [17]; > 100 µM (inactive) in test [18]; > 100 µM (inactive) in test [19].

`COC(=O)[C@]12CSC[C@H]1C[C@H](c1ccccc1OC)N2`: the GI50 in test [2], in test [3], in [4], in test [5], in test [6] and in [7] was > 100 µM (inactive) throughout. For the same molecule, the GI50 in [20], in test [8], in test [9], in [10], in test [11] and in test [13] was > 100 µM (inactive) each time. For the same molecule, the GI50 in test [14], in test [15], in test [16], in test [17], in test [18] and in test [19] was > 100 µM (inactive) in each case.

In the case of `Cc1ccc2c(=O)cc(Cc3cccs3)[nH]c2n1`, the GI50 in test [1] was > 100 µM (inactive); in test [2], > 100 µM (inactive); in test [3], 95.5 µM (inactive); in test [4], > 100 µM (inactive); in [5], > 100 µM (inactive); in [6], > 100 µM (inactive). Also, the GI50 in [7], in [8], in test [9], in [10], in test [11] and in test [13] was > 100 µM (inactive) each time. For the same molecule, the GI50 in [15], in test [16], in [17], in test [18] and in test [19] was > 100 µM (inactive) each time.

On to `CNC(=O)CCCNC(=O)CCCC(=O)OC`, for which the GI50 in test [1], in [2], in test [3], in test [4], in test [5] and in [7] was > 100 µM (inactive) throughout. The GI50 in [8], in [9], in [10], in [11], in [12] and in test [13] was > 100 µM (inactive) each time. Besides, the GI50 in [14], in [16], in test [17], in test [18] and in test [19] was > 100 µM (inactive) each time.

In the case of `CC(=O)NC(C)(C)C1CC=C(C)/C(=N\O)C1` (stereo not drawn), the GI50 in test [2], in test [3], in test [4], in [5], in test [6] and in [7] was > 100 µM (inactive) in each case. Moreover, the GI50 in test [20], in test [8], in test [9], in test [11], in test [12] and in test [13] was > 100 µM (inactive) throughout. The GI50 in test [16], in [17] and in test [18] was > 100 µM (inactive) each time.

With `CC(=O)[C@]1(O)Cc2c(O)c3c(c(O)c2C(OC2OC(C)C(O)C(O)C2F)C1)C(=O)c1ccccc1C3=O` (stereo partly drawn), the GI50 in test [1] was 0.33 µM (active); in [2] it was 0.358 µM (active); in test [3], 0.0664 µM (active); in test [4], 0.0565 µM (active); in [5] it was < 0.0159 µM (active); in [6], 0.914 µM (active). In addition, the GI50 in test [7] is 0.0288 µM (active); in test [8], 0.135 µM (active); in test [9], 0.316 µM (active); in test [10] it was 0.0265 µM (active); in test [11], 0.019 µM (active); in test [12], 0.055 µM (active). Moreover, the GI50 in test [13] was 0.083 µM (active); in [14] it was 0.0581 µM (active); in [15] it was 0.624 µM (active); in test [16] it was 0.0791 µM (active); in test [17], 0.0516 µM (active); in test [18], 0.61 µM (active). Also, the GI50 in test [19] is 0.208 µM (active).

Regarding `C[n+]1c(/C=C/c2ccc(/C=N/NC(=O)c3ccc(C(=O)N/N=C/c4ccc(/C=C/c5cn6ccccc6[n+]5C)cc4)cc3)cc2)cn2ccccc21`, the GI50 was > 100 µM (inactive) in [1]; > 100 µM (inactive) in test [2]; > 100 µM (inactive) in test [3]; > 100 µM (inactive) in test [4]; > 100 µM (inactive) in [5]; 16.6 µM (inactive) in test [7]. The GI50 in test [8] was > 100 µM (inactive); in test [9] it was > 100 µM (inactive); in test [11], > 100 µM (inactive); in test [12], > 100 µM (inactive); in test [17] it was 1.89 µM (inactive); in test [18], > 100 µM (inactive). In [19], the GI50 is > 100 µM (inactive).

`CC(=O)Nc1nnc(S(C)(=O)=O)s1`: the GI50 in test [2], in test [4], in test [5], in test [7], in [20] and in [9] was > 100 µM (inactive) throughout. The GI50 in test [10], in [11], in test [12], in test [13], in test [14] and in test [15] was > 100 µM (inactive) each time. Moreover, the GI50 in [18] and in test [19] was > 100 µM (inactive) each time.
